Test results from publication PMC7919492, “Synthesis of Rottlerone Analogues and Evaluation of Their α-Glucosidase and DPP-4 Dual Inhibitory and Glucose Consumption-Promoting Activity” (Molecules, 2021).
Entries after “also recorded” stand apart in the source; their conditions may differ. Like-named read-outs stand apart in the source and are kept apart here.

Columns and labels:
[1] = target: T1, α-glucosidase from baker’s yeast (Saccharomyces cerevisiae, UniProt P53341); test: biochemical; assay type: biochemical; conditions: for fold higher α-glucosidase inhibitory activity than 3: compared with compound 3; for fold higher α-glucosidase inhibitory activity than 5a: compared with compound 5a
T1 construct: purchased Sigma G5003
T1 sequence (P53341 whole entry): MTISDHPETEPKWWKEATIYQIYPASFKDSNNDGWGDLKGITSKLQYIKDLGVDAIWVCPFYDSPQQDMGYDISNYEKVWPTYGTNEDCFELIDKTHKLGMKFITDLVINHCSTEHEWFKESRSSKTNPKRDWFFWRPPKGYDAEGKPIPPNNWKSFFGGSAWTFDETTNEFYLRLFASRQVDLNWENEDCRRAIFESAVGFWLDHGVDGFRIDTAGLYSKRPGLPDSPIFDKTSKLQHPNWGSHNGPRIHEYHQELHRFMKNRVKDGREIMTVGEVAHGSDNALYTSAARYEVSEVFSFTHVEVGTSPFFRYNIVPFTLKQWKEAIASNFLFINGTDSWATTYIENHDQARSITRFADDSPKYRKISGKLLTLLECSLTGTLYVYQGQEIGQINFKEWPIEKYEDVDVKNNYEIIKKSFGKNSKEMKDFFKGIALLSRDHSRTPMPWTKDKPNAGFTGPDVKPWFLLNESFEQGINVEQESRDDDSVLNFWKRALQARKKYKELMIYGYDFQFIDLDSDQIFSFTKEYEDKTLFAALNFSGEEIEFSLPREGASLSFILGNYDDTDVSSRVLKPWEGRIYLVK
Protocol: The commercially available α-glucosidase from baker’s yeast (Sigma, G5003) was selected as the target protein while using p-nitrophenyl-α-D-glucopyranoside (pNGP, Sigma, N1377) as the substrate. […] The enzyme and substrate were dissolved in potassium phosphate buffer (0.05 M, pH 6.8). The enzymatic reaction mixture that was composed of α-glucosidase (0.04 U, 20 μL), substrate (0.5 mM, 30 μL), test compounds (20 μL), and potassium phosphate buffer (130 μL) was incubated at 37 °C for 30 min. The enzymatic activity was detected by spectrophotometer at the wavelength of 405 nm. The results are the average of three independent experiments, each being performed in duplicate.

[2] = target: T2, DPP-4 (Homo sapiens, UniProt P27487); test: DPP-4 inhibition assay (glycyl proline p-nitroaniline substrate); assay type: biochemical; conditions: average of three independent experiments, each in duplicate; 37 °C, 30 min
T2 construct: purchased PROSPEC ENZ-375
T2 sequence (P27487 whole entry): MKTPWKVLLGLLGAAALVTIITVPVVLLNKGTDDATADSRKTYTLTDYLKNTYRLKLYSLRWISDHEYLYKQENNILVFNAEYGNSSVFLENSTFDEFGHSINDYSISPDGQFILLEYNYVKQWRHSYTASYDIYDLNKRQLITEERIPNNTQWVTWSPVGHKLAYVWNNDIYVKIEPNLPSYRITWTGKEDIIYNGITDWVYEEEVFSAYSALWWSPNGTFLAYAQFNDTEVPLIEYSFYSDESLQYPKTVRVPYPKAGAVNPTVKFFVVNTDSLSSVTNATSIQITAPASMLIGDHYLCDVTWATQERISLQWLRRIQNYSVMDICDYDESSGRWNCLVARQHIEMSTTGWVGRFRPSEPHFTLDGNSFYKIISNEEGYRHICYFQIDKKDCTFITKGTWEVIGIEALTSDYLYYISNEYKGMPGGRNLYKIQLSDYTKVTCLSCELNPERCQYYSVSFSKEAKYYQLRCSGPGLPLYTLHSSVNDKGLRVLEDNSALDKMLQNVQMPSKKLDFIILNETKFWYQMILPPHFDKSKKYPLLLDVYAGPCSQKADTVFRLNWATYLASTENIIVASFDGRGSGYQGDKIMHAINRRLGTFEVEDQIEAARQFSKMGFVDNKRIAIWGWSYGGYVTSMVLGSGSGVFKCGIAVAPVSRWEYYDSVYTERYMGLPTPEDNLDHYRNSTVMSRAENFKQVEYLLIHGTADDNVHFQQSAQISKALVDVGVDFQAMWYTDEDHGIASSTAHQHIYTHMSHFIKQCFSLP
Protocol: The enzyme and substrate were dissolved in Tris-HCl buffer (0.1 M, pH 8.0). The enzymatic reaction mixture that was composed of DPP-4 (0.01 U, 50 μL), substrate (2.2 mM, 50 μL), test compounds (10 μL), and Tris-HCl buffer (90 μL) was incubated at 37 °C for 30 min. […] The results are the average of three independent experiments, each being performed in duplicate.

[3] = target: T3, α-glucosidase (Saccharomyces cerevisiae, UniProt P53341); test: Kinetics of enzyme inhibition (velocity vs enzyme plots, Lineweaver-Burk); assay type: biochemical, baker’s yeast; conditions: for reversibility of α-glucosidase inhibition: plots of velocity versus enzyme concentration at different inhibitor concentrations
T3 construct: purchased Sigma G5003
T3 sequence (P53341 whole entry): as the sequence (P53341 whole entry) above
Protocol: The commercially available α-glucosidase from baker’s yeast (Sigma, G5003) was selected as the target protein while using p-nitrophenyl-α-D-glucopyranoside (pNGP, Sigma, N1377) as the substrate. The compounds and acarbose were dissolved in DMSO. The enzyme and substrate were dissolved in potassium phosphate buffer (0.05 M, pH 6.8). The enzymatic reaction mixture that was composed of α-glucosidase (0.04 U, 20 μL), substrate (0.5 mM, 30 μL), test compounds (20 μL), and potassium phosphate buffer (130 μL) was incubated at 37 °C for 30 min. The enzymatic activity was detected by spectrophotometer at the wavelength of 405 nm. The results are the average of three independent experiments, each being performed in duplicate.
The kinetics of enzyme inhibition was performed with the same assays detailed above, in the presence of different concentrations of compounds 4d and 5d, substrate, and enzyme, respectively. The inhibitory kinetics of 4d and 5d on α-glucosidase was analyzed using the Lineweaver-Burk plot of the substrate concentration and velocity.

[4] = test system: HepG2 cells; test: Glucose consumption assay in HepG2 cells; assay type: cell-based, human; conditions: 24 h
Protocol: Briefly, the HepG2 cells were cultured in Dulbecco’s-modified Eagle’s medium (DMEM) containing 25 mmol/L D-glucose, 10% heat-inactivated fetal bovine serum (FBS), 10 U/mL penicillin, and […] streptomycin at 37 °C, 5% CO2 atmosphere. The culture solution was replaced every other day and then passaged once for 2–3 d. The cells were seeded into 96-well plate with twenty-four wells left as blanks. After reaching 70–80% confluence, the cells were washed with PBS twice and the medium was replaced by DMEM containing 25 mmol/L D-glucose to hunger for 24 h. The cells were washed with PBS twice and the medium was replaced by RPMI-1640 containing 11.1 mmol/L glucose that was supplemented with 0.2% bovine serum albumin (BSA). To the medium was then added 1 mmol/L metformin or purified product at different concentrations, and DMSO was used as the blank control. The glucose concentration in the medium […] 24 h treatment. Glucose consumption = glucose concentrations of blank wells − glucose concentrations of plated wells. The sulforhodamine B (SRB) assay was used to adjust the glucose consumption values. The SRB assay is based on the measurement of cellular protein content. […] Bound SRB was solubilized with 150 μL Tris-base (10 mmol/L, pH 10.5) solution for OD determination at 546 nm while using a microplate reader.

[5] = average of three independent experiments, each in duplicate, 37 °C, 30 min, read-out: IC50 α-Glucosidase

| IC50 [1, 5] [µM] | Compound | IC50 [2] [µM] | IC50 [1] [µM] | other results |
| --- | --- | --- | --- | --- |
| 5.91 ± 0.19 | CC1(C)C=Cc2c(O)c(Cc3c(O)c4c(c(C(=O)C=Cc5ccccc5)c3O)OC(C)(C)C=C4)c(O)c(C(=O)C=Cc3ccccc3)c2O1 (stereo in doubt) [Compound 3, (2Z,2’Z)-1,1’-(Methylenebis(5,7-dihydroxy-2,2-dimethyl-2H-chromene-6,8-diyl))bis (3-phenylprop-2-en-1-one)] | > 50 |  |  |
|  | COc1ccc(C=CC(=O)c2c(O)c(Cc3c(O)c4c(c(C(=O)C=Cc5ccc(OC)cc5)c3O)OC(C)(C)C=C4)c(O)c3c2OC(C)(C)C=C3)cc1 (stereo in doubt) [Compound 4a, (2Z,2’Z)-1,1’-(Methylenebis(5,7-dihydroxy-2,2-dimethyl-2H-chromene-6,8-diyl))bis (3-(4-methoxyphenyl)prop-2-en-1-one)] | > 50 | 6.41 ± 0.33 |  |
|  | CC1(C)C=Cc2c(O)c(Cc3c(O)c4c(c(C(=O)C=Cc5ccc(F)cc5)c3O)OC(C)(C)C=C4)c(O)c(C(=O)C=Cc3ccc(F)cc3)c2O1 (stereo in doubt) [Compound 4b, (2Z,2’Z)-1,1’-(Methylenebis(5,7-dihydroxy-2,2-dimethyl-2H-chromene-6,8-diyl))bis (3-(4-fluoro phenyl)prop-2-en-1-one)] | > 50 | 8.71 ± 0.54 |  |
|  | CC1(C)C=Cc2c(O)c(Cc3c(O)c4c(c(C(=O)C=Cc5ccc(O)cc5)c3O)OC(C)(C)C=C4)c(O)c(C(=O)C=Cc3ccc(O)cc3)c2O1 (stereo in doubt) [Compound 5a, (2Z,2’Z)-1,1’-(Methylenebis(5,7-dihydroxy-2,2-dimethyl-2H-chromene-6,8-diyl))bis (3-(4-hydroxyphenyl)prop-2-en-1-one)] | > 50 | 0.51 ± 0.19 | fold higher α-glucosidase inhibitory activity than 3 [1]: 10 fold |
|  | CC1(C)C=Cc2c(O)c(Cc3c(O)c4c(c(C(=O)C=Cc5ccc(O)cc5O)c3O)OC(C)(C)C=C4)c(O)c(C(=O)C=Cc3ccc(O)cc3O)c2O1 (stereo in doubt) [Compound 5b, (2Z,2’Z)-1,1’-(Methylenebis(5,7-dihydroxy-2,2-dimethyl-2H-chromene-6,8-diyl))bis (3-(2,4-dihydroxyphenyl)prop-2-en-1-one)] | > 50 | 0.24 ± 0.02 | fold higher α-glucosidase inhibitory activity than 5a [1]: two-fold |
|  | CC1(C)C=Cc2c(O)c(Cc3c(O)c4c(c(C(=O)C=Cc5cccc(O)c5O)c3O)OC(C)(C)C=C4)c(O)c(C(=O)C=Cc3cccc(O)c3O)c2O1 (stereo in doubt) [Compound 5c, (2Z,2’Z)-1,1’-(Methylenebis(5,7-dihydroxy-2,2-dimethyl-2H-chromene-6,8-diyl))bis (3-(2,3-dihydroxyphenyl)prop-2-en-1-one)] | > 50 | 1.07 ± 0.06 |  |
|  | CC1(C)C=Cc2c(O)c(Cc3c(O)c4c(c(C(=O)C=Cc5ccc(O)c(O)c5O)c3O)OC(C)(C)C=C4)c(O)c(C(=O)C=Cc3ccc(O)c(O)c3O)c2O1 (stereo in doubt) [Compound 5d, (2Z,2’Z)-1,1’-(Methylenebis(5,7-dihydroxy-2,2-dimethyl-2H-chromene-6,8-diyl))bis (3-(2,3,4-trihydroxyphenyl)prop-2-en-1-one)] | 26.19 ± 0.22 | 0.12 ± 0.02 | fold higher α-glucosidase inhibitory activity than 5a [1]: four-fold; type of α-glucosidase inhibition ([3]; Lineweaver-Burk plot, 0, 0.2, 0.5 μM): mixed competitive α-glucosidase inhibitor; also recorded: mixed competitive inhibitory mode; reversibility of α-glucosidase inhibition [3]: irreversibly; also recorded: irreversible α-glucosidase inhibitors; glucose consumption ([4]; 0.04 μM): significantly promote glucose consumption; glucose consumption ([4]; 0.2 μM, metformin 1 mM positive control): significantly promote glucose consumption; also recorded: comparable to that of metformin |
| 22.4 ± 3.1 | CC(C)=CCc1c(O)cc(O)c(C(=O)/C=C/c2ccc(O)cc2)c1O [Compound 1, Desmethylxanthohumol, reference compound] | > 50 |  |  |
| 9.74 ± 0.73 | CC1(C)C=Cc2c(O)cc(O)c(C(=O)/C=C/c3ccc(O)cc3)c2O1 [Compound 2, dehydrocyclodesmethylxanthohumol, reference compound] | > 50 |  |  |
| 7.11 ± 0.05 | CC(=O)c1c(O)c(Cc2c(O)c3c(c(C(C)=O)c2O)OC(C)(C)C=C3)c(O)c2c1OC(C)(C)C=C2 [Compound 9, 1,1’-(Methylenebis(5,7-dihydroxy-2,2-dimethyl-2H-chromene-6,8-diyl))bis (ethan-1-one)] | > 50 |  |  |
|  | COc1c2c(c(C(=O)/C=C\c3ccccc3)c(O)c1Cc1c(O)c(C(=O)/C=C\c3ccccc3)c3c(c1OC)C=CC(C)(C)O3)OC(C)(C)C=C2 [Compound 12, (2Z,2’Z)-1,1’-(Methylenebis(7-hydroxy-5-methoxy-2,2-dimethyl-2H-chromene-6,8-diyl))bis(3-phenylprop-2-en-1-one)] | > 50 | 3.39 ± 0.13 |  |
|  | COc1c2c(c(C(=O)/C=C\c3ccccc3)c(O)c1Cc1c(OC)c3c(c(C(=O)/C=C\c4ccccc4)c1OC)OC(C)(C)C=C3)OC(C)(C)C=C2 [Compound 13, (Z)-1-(6-((5,7-Dimethoxy-2,2-dimethyl-8-((Z)-3-phenylacryloyl)-2H-chromen-6-yl)methyl)-7-hydroxy-5-methoxy-2,2-dimethyl-2H-chromen-8-yl)-3-phenylprop-2-en-1-one] | > 50 | 0.37 ± 0.04 | fold enhancement of α-glucosidase inhibitory activity compared to 12 ([1]; compared with compound 12): 10 fold |

| Compound | IC50 [1, 5] [µM] | IC50 [2] [µM] | IC50 [1] [µM] | other results |
| --- | --- | --- | --- | --- |
| CC1(C)C=Cc2c(O)c(Cc3c(O)c4c(c(C(=O)C=Cc5ccsc5)c3O)OC(C)(C)C=C4)c(O)c(C(=O)C=Cc3ccsc3)c2O1 (stereo in doubt) [Compound 4d, (2Z,2’Z)-1,1’-(Methylenebis(5,7-dihydroxy-2,2-dimethyl-2H-chromene-6,8-diyl))bis (3-(thiophen-3-yl)prop-2-en-1-one)] | 0.22 ± 0.07 | 23.59 ± 0.14 |  | fold higher α-glucosidase inhibitory activity than 3 [1]: 26 fold; reversibility of α-glucosidase inhibition [3]: irreversibly; also recorded: irreversible α-glucosidase inhibitors |
| (2Z,2’Z)-1,1’-(Methylenebis(5,7-dihydroxy-2,2-dimethyl-2H-chromene-6,8-diyl))bis (3-(furan-3-yl)prop-2-en-1-one) [Compound 4c] | 1.84 ± 0.41 | 21.48 ± 0.09 |  | fold higher α-glucosidase inhibitory activity than 3 [1]: three-fold |
